According to PubChem BioAssay (NCI):
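1) Cells in 96-well plates. 2) Compound, 48 h, 5 concentrations. 3) Linear interpolation between surrounding doses. 4) Unreached endpoint = highest concentration. GI50 = concentration required for 50% inhibition of growth. TGI: total growth inhibition.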

How the values were obtained:
Assay in all cases: DTP human tumour cell line panel, 48 h
OVCAR-5 ovarian = test system: OVCAR-5 ovarian
PC-3 prostate = test system: PC-3 prostate
NCI-H226 lung = test system: NCI-H226 lung
UACC-257 melanoma = test system: UACC-257 melanoma
HCT-116 colon = test system: HCT-116 colon
DU-145 prostate = test system: DU-145 prostate
KM12 colon = test system: KM12 colon
OVCAR-8 ovarian = test system: OVCAR-8 ovarian
SNB-75 CNS = test system: SNB-75 CNS
SK-MEL-2 melanoma = test system: SK-MEL-2 melanoma
MDA-MB-435 = test system: MDA-MB-435
MALME-3M melanoma = test system: MALME-3M melanoma
OVCAR-4 ovarian = test system: OVCAR-4 ovarian
SF-295 CNS = test system: SF-295 CNS
OVCAR-3 ovarian = test system: OVCAR-3 ovarian
UACC-62 melanoma = test system: UACC-62 melanoma
MDA-MB-231 breast = test system: MDA-MB-231 breast
HOP-62 NSCLC = test system: HOP-62 NSCLC
SN12C renal = test system: SN12C renal
HL-60(TB) leukemia = test system: HL-60(TB) leukemia
LOX IMVI melanoma = test system: LOX IMVI melanoma
CCRF-CEM leukemia = test system: CCRF-CEM leukemia
EKVX NSCLC = test system: EKVX NSCLC
ACHN renal = test system: ACHN renal
RXF 393 renal = test system: RXF 393 renal
HOP-92 NSCLC = test system: HOP-92 NSCLC
NCI-H522 lung = test system: NCI-H522 lung
HCC-2998 colon = test system: HCC-2998 colon
M14 melanoma = test system: M14 melanoma
SK-OV-3 ovarian = test system: SK-OV-3 ovarian
TK-10 renal = test system: TK-10 renal
IGROV1 ovarian = test system: IGROV1 ovarian
K-562 leukemia = test system: K-562 leukemia
SNB-19 CNS = test system: SNB-19 CNS
SF-539 CNS = test system: SF-539 CNS
SK-MEL-5 melanoma = test system: SK-MEL-5 melanoma
UO-31 renal = test system: UO-31 renal
NCI-H23 lung = test system: NCI-H23 lung
MOLT-4 leukemia = test system: MOLT-4 leukemia
U251 CNS = test system: U251 CNS
HCT-15 colon = test system: HCT-15 colon
786-0 renal = test system: 786-0 renal
A498 renal = test system: A498 renal
BT-549 breast = test system: BT-549 breast
SW-620 colon = test system: SW-620 colon
NCI/ADR-RES ovarian = test system: NCI/ADR-RES ovarian
SF-268 CNS = test system: SF-268 CNS
NCI-H460 lung = test system: NCI-H460 lung
HS 578T breast = test system: HS 578T breast
HT29 colon = test system: HT29 colon
A549 NSCLC = test system: A549 NSCLC
CAKI-1 renal = test system: CAKI-1 renal
SK-MEL-28 melanoma = test system: SK-MEL-28 melanoma
T-47D breast = test system: T-47D breast
COLO 205 colon = test system: COLO 205 colon
MCF7 breast = test system: MCF7 breast

Work on N#Cc1nc(-c2ccc(F)cc2)oc1S(=O)(=O)N1CCCCC1 yielded a GI50 (OVCAR-5 ovarian) of 1.71 µM, a TGI (OVCAR-5 ovarian) of 3.32 µM and a GI50 (PC-3 prostate) of 1.81 µM. It also gave a TGI (PC-3 prostate) of 3.7 µM, a GI50 (NCI-H226 lung) of 19.1 µM and a TGI (NCI-H226 lung) of 42.1 µM. It also gave a GI50 (UACC-257 melanoma) of 1.98 µM, a TGI (UACC-257 melanoma) of 4.58 µM and a GI50 (HCT-116 colon) of 1.79 µM. The TGI (HCT-116 colon) was 3.54 µM, the GI50 (DU-145 prostate) was 1.81 µM and the TGI (DU-145 prostate) was 3.24 µM. The GI50 (KM12 colon) was 5.23 µM, the TGI (KM12 colon) was 19.3 µM and the GI50 (OVCAR-8 ovarian) was 3.19 µM. It also gave a TGI (OVCAR-8 ovarian) of 24.1 µM, a GI50 (SNB-75 CNS) of 11.8 µM and a TGI (SNB-75 CNS) of 25 µM. It also gave a GI50 (SK-MEL-2 melanoma) of 2.03 µM, a TGI (SK-MEL-2 melanoma) of 4.92 µM and a GI50 (MDA-MB-435) of 1.82 µM. It also gave a TGI (MDA-MB-435) of 3.75 µM, a GI50 (MALME-3M melanoma) of 1.69 µM and a TGI (MALME-3M melanoma) of 3.37 µM. It also gave a GI50 (OVCAR-4 ovarian) of 2.19 µM, a TGI (OVCAR-4 ovarian) of 4.76 µM and a GI50 (SF-295 CNS) of 14.1 µM. The TGI (SF-295 CNS) was 27.4 µM, the GI50 (OVCAR-3 ovarian) was 1.86 µM and the TGI (OVCAR-3 ovarian) was 3.48 µM. For the same molecule, the GI50 (UACC-62 melanoma) was 1.62 µM, the TGI (UACC-62 melanoma) was 3.01 µM and the GI50 (MDA-MB-231 breast) was 1.86 µM. For the same molecule, the TGI (MDA-MB-231 breast) was 3.54 µM, the GI50 (HOP-62 NSCLC) was 5.59 µM and the TGI (HOP-62 NSCLC) was 25.5 µM. The GI50 (SN12C renal) was 1.65 µM, the TGI (SN12C renal) was 3.11 µM and the GI50 (HL-60(TB) leukemia) was 2.54 µM. It also gave a TGI (HL-60(TB) leukemia) of 7.02 µM, a GI50 (LOX IMVI melanoma) of 1.19 µM and a TGI (LOX IMVI melanoma) of 2.69 µM. It also gave a GI50 (CCRF-CEM leukemia) of 0.954 µM, a TGI (CCRF-CEM leukemia) greater than 100 µM and a GI50 (EKVX NSCLC) of 1.86 µM. The TGI (EKVX NSCLC) was 3.96 µM, the GI50 (ACHN renal) was 1.76 µM and the TGI (ACHN renal) was 3.15 µM. It also gave a GI50 (RXF 393 renal) of 1.91 µM, a TGI (RXF 393 renal) of 3.38 µM and a GI50 (HOP-92 NSCLC) of 1.76 µM. It also gave a TGI (HOP-92 NSCLC) of 3.37 µM, a GI50 (NCI-H522 lung) of 0.927 µM and a TGI (NCI-H522 lung) of 3.1 µM. It also gave a GI50 (HCC-2998 colon) of 1.8 µM, a TGI (HCC-2998 colon) of 3.46 µM and a GI50 (M14 melanoma) of 1.77 µM. For the same molecule, the TGI (M14 melanoma) was 3.87 µM, the GI50 (SK-OV-3 ovarian) was 24.3 µM and the TGI (SK-OV-3 ovarian) was 91.2 µM. It also gave a GI50 (TK-10 renal) of 1.78 µM, a TGI (TK-10 renal) of 3.27 µM and a GI50 (IGROV1 ovarian) of 1.75 µM. For the same molecule, the TGI (IGROV1 ovarian) was 3.5 µM, the GI50 (K-562 leukemia) was 2.43 µM and the TGI (K-562 leukemia) was greater than 100 µM. For the same molecule, the GI50 (SNB-19 CNS) was 11 µM, the TGI (SNB-19 CNS) was 23 µM and the GI50 (SF-539 CNS) was 1.73 µM. The TGI (SF-539 CNS) was 3.12 µM, the GI50 (SK-MEL-5 melanoma) was 1.81 µM and the TGI (SK-MEL-5 melanoma) was 3.36 µM. It also gave a GI50 (UO-31 renal) of 1.58 µM, a TGI (UO-31 renal) of 2.93 µM and a GI50 (NCI-H23 lung) of 2.14 µM. The TGI (NCI-H23 lung) was 4.92 µM, the GI50 (MOLT-4 leukemia) was 2.22 µM and the TGI (MOLT-4 leukemia) was 8.21 µM. It also gave a GI50 (U251 CNS) of 2.22 µM, a TGI (U251 CNS) of 5.31 µM and a GI50 (HCT-15 colon) of 1.59 µM. For the same molecule, the TGI (HCT-15 colon) was 3.37 µM, the GI50 (786-0 renal) was 1.8 µM and the TGI (786-0 renal) was 3.53 µM. For the same molecule, the GI50 (A498 renal) was 14.1 µM, the TGI (A498 renal) was 27.4 µM and the GI50 (BT-549 breast) was 2.24 µM. The TGI (BT-549 breast) was 5.74 µM, the GI50 (SW-620 colon) was 1.89 µM and the TGI (SW-620 colon) was 4.11 µM. It also gave a GI50 (NCI/ADR-RES ovarian) of 4.97 µM, a TGI (NCI/ADR-RES ovarian) greater than 100 µM and a GI50 (SF-268 CNS) of 2.23 µM. For the same molecule, the TGI (SF-268 CNS) was 6.23 µM, the GI50 (NCI-H460 lung) was 4.77 µM and the TGI (NCI-H460 lung) was 19.6 µM. It also gave a GI50 (HS 578T breast) of 2.24 µM, a TGI (HS 578T breast) of 5.74 µM and a GI50 (HT29 colon) of 2.4 µM. For the same molecule, the TGI (HT29 colon) was 5.42 µM, the GI50 (A549 NSCLC) was 6.9 µM and the TGI (A549 NSCLC) was 27.1 µM. The GI50 (CAKI-1 renal) was 1.66 µM, the TGI (CAKI-1 renal) was 3.03 µM and the GI50 (SK-MEL-28 melanoma) was 1.75 µM. The TGI (SK-MEL-28 melanoma) was 3.28 µM, the GI50 (T-47D breast) was 2.13 µM and the TGI (T-47D breast) was 5.44 µM. The GI50 (COLO 205 colon) was 2.07 µM, the TGI (COLO 205 colon) was 4.2 µM and the GI50 (MCF7 breast) was 1.69 µM. The TGI (MCF7 breast) was 3.82 µM.
